Tests used:
[1] = In vitro stability on incubation with mouse serum; format: in vitro ADME; details: for half-life at 200 µM: mouse, serum; for Fold in vitro half-life relative to native GLP-1, serum incubation: ratio to native GLP-1 (55.7 min), mouse serum, 37 °C
[2] = biological target: dipeptidyl peptidase-IV (DPP-IV) (Homo sapiens, UniProt P27487); assay: In vitro proteolytic stability against DPP-IV; format: in vitro ADME; details: for half-life: isolated enzyme dpp iv, pH 7.4; for Fold in vitro half-life relative to native GLP-1, DPP-IV incubation: ratio to native GLP-1 (10.2 min), 37 °C
dipeptidyl peptidase-IV (DPP-IV), sequence (P27487 whole entry, species assumed): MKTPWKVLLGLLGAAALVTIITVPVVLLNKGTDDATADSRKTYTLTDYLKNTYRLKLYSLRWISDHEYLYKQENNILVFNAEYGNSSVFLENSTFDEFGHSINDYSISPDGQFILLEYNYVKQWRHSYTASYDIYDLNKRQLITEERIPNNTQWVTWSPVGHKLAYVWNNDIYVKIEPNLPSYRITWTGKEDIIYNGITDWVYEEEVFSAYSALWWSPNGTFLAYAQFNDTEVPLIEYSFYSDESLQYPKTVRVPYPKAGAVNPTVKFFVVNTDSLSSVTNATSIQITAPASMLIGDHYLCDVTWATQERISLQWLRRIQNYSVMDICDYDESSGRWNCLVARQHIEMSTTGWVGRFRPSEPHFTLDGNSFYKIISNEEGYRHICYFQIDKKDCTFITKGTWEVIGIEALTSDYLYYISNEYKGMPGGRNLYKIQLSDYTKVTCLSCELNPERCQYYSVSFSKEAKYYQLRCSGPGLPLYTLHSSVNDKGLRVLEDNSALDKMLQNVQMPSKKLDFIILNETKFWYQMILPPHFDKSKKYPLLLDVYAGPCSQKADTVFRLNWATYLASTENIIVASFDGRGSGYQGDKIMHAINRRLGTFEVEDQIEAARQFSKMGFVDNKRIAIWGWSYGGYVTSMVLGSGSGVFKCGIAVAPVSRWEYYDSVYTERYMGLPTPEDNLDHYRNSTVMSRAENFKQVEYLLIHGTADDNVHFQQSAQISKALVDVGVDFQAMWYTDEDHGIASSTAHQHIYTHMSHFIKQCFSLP

SMILES | half-life at 200 µM [1] | half-life [2] | Fold in vitro half-life relative to native GLP-1, serum incubation [1] | Fold in vitro half-life relative to native GLP-1, DPP-IV incubation [2]
CC[C@H](C)[C@H](NC(=O)[C@H](Cc1ccccc1)NC(=O)[C@H](CCC(=O)O)NC(=O)[C@H](CCCCN)NC(=O)[C@H](C)NC(=O)[C@H](C)NC(=O)[C@H](CCC(N)=O)NC(=O)CNC(=O)[C@H](CCC(=O)O)NC(=O)[C@H](CC(C)C)NC(=O)[C@H](Cc1ccc(O)cc1)NC(=O)[C@H](CO)NC(=O)[C@H](CO)NC(=O)[C@@H](NC(=O)[C@H](CC(=O)N[C@@H]1O[C@H](CO)[C@@H](O[C@@H]2O[C@H](CO)[C@@H](O[C@@H]3O[C@H](CO[C@H]4O[C@H](CO)[C@@H](O)[C@H](O)[C@@H]4O[C@@H]4O[C@H](CO)[C@@H](O[C@@H]5O[C@H](CO)[C@H](O)[C@H](O)[C@H]5O)[C@H](O)[C@H]4NC(C)=O)[C@@H](O)[C@H](O[C@H]4O[C@H](CO)[C@@H](O)[C@H](O)[C@@H]4O[C@@H]4O[C@H](CO)[C@@H](O[C@@H]5O[C@H](CO)[C@H](O)[C@H](O)[C@H]5O)[C@H](O)[C@H]4NC(C)=O)[C@@H]3O)[C@H](O)[C@H]2NC(C)=O)[C@H](O)[C@H]1O)NC(=O)[C@H](CO)NC(=O)[C@@H](NC(=O)[C@H](Cc1ccccc1)NC(=O)[C@@H](NC(=O)CNC(=O)[C@H](CCC(=O)O)NC(=O)[C@H](C)NC(=O)[C@@H](N)Cc1c[nH]cn1)[C@@H](C)O)[C@@H](C)O)C(C)C)C(=O)N[C@@H](C)C(=O)N[C@@H](Cc1c[nH]c2ccccc12)C(=O)N[C@@H](CC(C)C)C(=O)N[C@H](C(=O)N[C@@H](CCCCN)C(=O)NCC(=O)N[C@@H](CCCNC(=N)N)C(=O)NCC(=O)O)C(C)C [Glycan-GLP-1-1(G2)] | 5.92 ± 0.155 h | 0.818 ± 0.095 h | – | –
CC[C@H](C)[C@H](NC(=O)[C@H](Cc1ccccc1)NC(=O)[C@H](CCC(=O)O)NC(=O)[C@H](CCCCN)NC(=O)[C@H](C)NC(=O)[C@H](C)NC(=O)[C@H](CCC(N)=O)NC(=O)CNC(=O)[C@H](CCC(=O)O)NC(=O)[C@H](CC(C)C)NC(=O)[C@H](Cc1ccc(O)cc1)NC(=O)[C@H](CO)NC(=O)[C@H](CO)NC(=O)[C@@H](NC(=O)[C@H](CC(=O)N[C@@H]1O[C@H](CO)[C@@H](O[C@@H]2O[C@H](CO)[C@@H](O[C@@H]3O[C@H](CO[C@H]4O[C@H](CO)[C@@H](O)[C@H](O)[C@@H]4O[C@@H]4O[C@H](CO)[C@@H](O[C@@H]5O[C@H](CO[C@]6(C(=O)O)C[C@H](O)[C@@H](NC(C)=O)[C@H]([C@H](O)[C@H](O)CO)O6)[C@H](O)[C@H](O)[C@H]5O)[C@H](O)[C@H]4NC(C)=O)[C@@H](O)[C@H](O[C@H]4O[C@H](CO)[C@@H](O)[C@H](O)[C@@H]4O[C@@H]4O[C@H](CO)[C@@H](O[C@@H]5O[C@H](CO[C@]6(C(=O)O)C[C@H](O)[C@@H](NC(C)=O)[C@H]([C@H](O)[C@H](O)CO)O6)[C@H](O)[C@H](O)[C@H]5O)[C@H](O)[C@H]4NC(C)=O)[C@@H]3O)[C@H](O)[C@H]2NC(C)=O)[C@H](O)[C@H]1O)NC(=O)[C@H](CO)NC(=O)[C@@H](NC(=O)[C@H](Cc1ccccc1)NC(=O)[C@@H](NC(=O)CNC(=O)[C@H](CCC(=O)O)NC(=O)[C@H](C)NC(=O)[C@@H](N)Cc1c[nH]cn1)[C@@H](C)O)[C@@H](C)O)C(C)C)C(=O)N[C@@H](C)C(=O)N[C@@H](Cc1c[nH]c2ccccc12)C(=O)N[C@@H](CC(C)C)C(=O)N[C@H](C(=O)N[C@@H](CCCCN)C(=O)NCC(=O)N[C@@H](CCCNC(=N)N)C(=O)NCC(=O)O)C(C)C [Glycan-GLP-1-1(G2S2)] | 12.3 ± 0.205 h | 2.43 ± 0.0717 h | – | –
CC[C@H](C)[C@H](NC(=O)[C@H](CO)NC(=O)[C@H](CCC(=O)O)NC(=O)[C@H](CC(=O)N[C@@H]1O[C@H](CO)[C@@H](O[C@@H]2O[C@H](CO)[C@@H](O[C@@H]3O[C@H](CO[C@H]4O[C@H](CO)[C@@H](O)[C@H](O)[C@@H]4O[C@@H]4O[C@H](CO)[C@@H](O[C@@H]5O[C@H](CO)[C@H](O)[C@H](O)[C@H]5O)[C@H](O)[C@H]4NC(C)=O)[C@@H](O)[C@H](O[C@H]4O[C@H](CO)[C@@H](O)[C@H](O)[C@@H]4O[C@@H]4O[C@H](CO)[C@@H](O[C@@H]5O[C@H](CO)[C@H](O)[C@H](O)[C@H]5O)[C@H](O)[C@H]4NC(C)=O)[C@@H]3O)[C@H](O)[C@H]2NC(C)=O)[C@H](O)[C@H]1O)NC(=O)[C@H](C)NC(=O)[C@H](C)NC(=O)[C@H](CCC(N)=O)NC(=O)CNC(=O)[C@H](CCC(=O)O)NC(=O)[C@H](CC(C)C)NC(=O)[C@H](Cc1ccc(O)cc1)NC(=O)[C@H](CO)NC(=O)[C@H](CO)NC(=O)[C@@H](NC(=O)[C@H](CC(=O)O)NC(=O)[C@H](CO)NC(=O)[C@@H](NC(=O)[C@H](Cc1ccccc1)NC(=O)[C@@H](NC(=O)CNC(=O)[C@H](CCC(=O)O)NC(=O)[C@H](C)NC(=O)[C@@H](N)Cc1c[nH]cn1)[C@@H](C)O)[C@@H](C)O)C(C)C)C(=O)N[C@@H](C)C(=O)N[C@@H](Cc1c[nH]c2ccccc12)C(=O)N[C@@H](CC(C)C)C(=O)N[C@H](C(=O)N[C@@H](CCCCN)C(=O)NCC(=O)N[C@@H](CCCNC(=N)N)C(=O)NCC(=O)O)C(C)C [Glycan-GLP-1-3(G2)] | 12.3 ± 0.162 h | 3.088 ± 0.0183 h | – | –
CC[C@H](C)[C@H](NC(=O)[C@H](CO)NC(=O)[C@H](CCC(=O)O)NC(=O)[C@H](CC(=O)N[C@@H]1O[C@H](CO)[C@@H](O[C@@H]2O[C@H](CO)[C@@H](O[C@@H]3O[C@H](CO[C@H]4O[C@H](CO)[C@@H](O)[C@H](O)[C@@H]4O[C@@H]4O[C@H](CO)[C@@H](O[C@@H]5O[C@H](CO[C@]6(C(=O)O)C[C@H](O)[C@@H](NC(C)=O)[C@H]([C@H](O)[C@H](O)CO)O6)[C@H](O)[C@H](O)[C@H]5O)[C@H](O)[C@H]4NC(C)=O)[C@@H](O)[C@H](O[C@H]4O[C@H](CO)[C@@H](O)[C@H](O)[C@@H]4O[C@@H]4O[C@H](CO)[C@@H](O[C@@H]5O[C@H](CO[C@]6(C(=O)O)C[C@H](O)[C@@H](NC(C)=O)[C@H]([C@H](O)[C@H](O)CO)O6)[C@H](O)[C@H](O)[C@H]5O)[C@H](O)[C@H]4NC(C)=O)[C@@H]3O)[C@H](O)[C@H]2NC(C)=O)[C@H](O)[C@H]1O)NC(=O)[C@H](C)NC(=O)[C@H](C)NC(=O)[C@H](CCC(N)=O)NC(=O)CNC(=O)[C@H](CCC(=O)O)NC(=O)[C@H](CC(C)C)NC(=O)[C@H](Cc1ccc(O)cc1)NC(=O)[C@H](CO)NC(=O)[C@H](CO)NC(=O)[C@@H](NC(=O)[C@H](CC(=O)O)NC(=O)[C@H](CO)NC(=O)[C@@H](NC(=O)[C@H](Cc1ccccc1)NC(=O)[C@@H](NC(=O)CNC(=O)[C@H](CCC(=O)O)NC(=O)[C@H](C)NC(=O)[C@@H](N)Cc1c[nH]cn1)[C@@H](C)O)[C@@H](C)O)C(C)C)C(=O)N[C@@H](C)C(=O)N[C@@H](Cc1c[nH]c2ccccc12)C(=O)N[C@@H](CC(C)C)C(=O)N[C@H](C(=O)N[C@@H](CCCCN)C(=O)NCC(=O)N[C@@H](CCCNC(=N)N)C(=O)NCC(=O)O)C(C)C [Glycan-GLP-1-3(G2S2)] | 23.22 ± 0.148 h | 6.245 ± 0.03 h | 25.0 fold | 36.7 fold
CC[C@H](C)[C@H](NC(=O)[C@H](Cc1ccccc1)NC(=O)[C@H](CCC(=O)O)NC(=O)[C@H](CCCCN)NC(=O)[C@H](C)NC(=O)[C@H](C)NC(=O)[C@H](CCC(N)=O)NC(=O)CNC(=O)[C@H](CCC(=O)O)NC(=O)[C@H](CC(C)C)NC(=O)[C@H](Cc1ccc(O)cc1)NC(=O)[C@H](CO)NC(=O)[C@H](CO)NC(=O)[C@@H](NC(=O)[C@H](CC(=O)O)NC(=O)[C@H](CO)NC(=O)[C@@H](NC(=O)[C@H](Cc1ccccc1)NC(=O)[C@@H](NC(=O)CNC(=O)[C@H](CCC(=O)O)NC(=O)[C@H](C)NC(=O)[C@@H](N)Cc1c[nH]cn1)[C@@H](C)O)[C@@H](C)O)C(C)C)C(=O)N[C@@H](C)C(=O)N[C@@H](Cc1c[nH]c2ccccc12)C(=O)N[C@@H](CC(C)C)C(=O)N[C@H](C(=O)N[C@@H](CC(=O)N[C@@H]1O[C@H](CO)[C@@H](O[C@@H]2O[C@H](CO)[C@@H](O[C@@H]3O[C@H](CO[C@H]4O[C@H](CO)[C@@H](O)[C@H](O)[C@@H]4O[C@@H]4O[C@H](CO)[C@@H](O[C@@H]5O[C@H](CO)[C@H](O)[C@H](O)[C@H]5O)[C@H](O)[C@H]4NC(C)=O)[C@@H](O)[C@H](O[C@H]4O[C@H](CO)[C@@H](O)[C@H](O)[C@@H]4O[C@@H]4O[C@H](CO)[C@@H](O[C@@H]5O[C@H](CO)[C@H](O)[C@H](O)[C@H]5O)[C@H](O)[C@H]4NC(C)=O)[C@@H]3O)[C@H](O)[C@H]2NC(C)=O)[C@H](O)[C@H]1O)C(=O)NCC(=O)N[C@H](C(=O)NCC(=O)O)[C@@H](C)O)C(C)C [Glycan-GLP-1-5(G2)] | 6.51 ± 0.225 h | 3.0333 ± 0.00167 h | – | –
CC[C@H](C)[C@H](NC(=O)[C@H](Cc1ccccc1)NC(=O)[C@H](CCC(=O)O)NC(=O)[C@H](CCCCN)NC(=O)[C@H](C)NC(=O)[C@H](C)NC(=O)[C@H](CCC(N)=O)NC(=O)CNC(=O)[C@H](CCC(=O)O)NC(=O)[C@H](CC(C)C)NC(=O)[C@H](Cc1ccc(O)cc1)NC(=O)[C@H](CO)NC(=O)[C@H](CO)NC(=O)[C@@H](NC(=O)[C@H](CC(=O)O)NC(=O)[C@H](CO)NC(=O)[C@@H](NC(=O)[C@H](Cc1ccccc1)NC(=O)[C@@H](NC(=O)CNC(=O)[C@H](CCC(=O)O)NC(=O)[C@H](C)NC(=O)[C@@H](N)Cc1c[nH]cn1)[C@@H](C)O)[C@@H](C)O)C(C)C)C(=O)N[C@@H](C)C(=O)N[C@@H](Cc1c[nH]c2ccccc12)C(=O)N[C@@H](CC(C)C)C(=O)N[C@H](C(=O)N[C@@H](CC(=O)N[C@@H]1O[C@H](CO)[C@@H](O[C@@H]2O[C@H](CO)[C@@H](O[C@@H]3O[C@H](CO[C@H]4O[C@H](CO)[C@@H](O)[C@H](O)[C@@H]4O[C@@H]4O[C@H](CO)[C@@H](O[C@@H]5O[C@H](CO[C@]6(C(=O)O)C[C@H](O)[C@@H](NC(C)=O)[C@H]([C@H](O)[C@H](O)CO)O6)[C@H](O)[C@H](O)[C@H]5O)[C@H](O)[C@H]4NC(C)=O)[C@@H](O)[C@H](O[C@H]4O[C@H](CO)[C@@H](O)[C@H](O)[C@@H]4O[C@@H]4O[C@H](CO)[C@@H](O[C@@H]5O[C@H](CO[C@]6(C(=O)O)C[C@H](O)[C@@H](NC(C)=O)[C@H]([C@H](O)[C@H](O)CO)O6)[C@H](O)[C@H](O)[C@H]5O)[C@H](O)[C@H]4NC(C)=O)[C@@H]3O)[C@H](O)[C@H]2NC(C)=O)[C@H](O)[C@H]1O)C(=O)NCC(=O)N[C@H](C(=O)NCC(=O)O)[C@@H](C)O)C(C)C [Glycan-GLP-1-5(G2S2)] | 12.9 ± 0.17 h | 4.088 ± 0.0217 h | 13.9 fold | 24.0 fold

Reference: paper PMC9639207 (RSC Advances, 2022)
